In patent publication US8435962B2, “Triacetyl-3-hydroxyphenyladenosine and its use for regulating blood fat” (Institute of Mataria Medica, Chinese Academy of Medical …, priority 2009, dated 2013):
Where two headings read alike, the source gives them in different places.

Experiments:
hyperlipidemia rats [1] = assay: Effects on plasma lipid in hyperlipidemia rats (high-fat diet); assay type: in vivo, rat; conditions: for FFA / HDL-C / HDL/LDL / LDL-C / TC / TG: 4 weeks;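 as to all read-outs here: rats kept on high-fat chow for 4 weeks before dosing, serum taken from abdominal aorta after a 12 h fast at end of treatment, controls given vehicle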
Description: (§2) After a week of accommodation, except control group (20 rat), all the rats (120 rats) were fed with high-fat laboratory chow.
(§3) After four weeks high-fat diet modeling, rats were treated with different drugs by intragastric administration. Control animals received an equal volume of vehicle.
(§4) At the end of 4 weeks drug treatment, animals were fasted for 12 hours before anesthetizing by intraperitoneal injection of pentobarbitale sodium (45 mg/kg), and anticoagulated by 100 U/kg heparin through caudal vein injection. Blood samples were collected from the abdominal aorta within 15 min, and serum was separated. Serum TC, TG, HDL-C, LDL-C, ALT, FFA were detected. Liver and the fat pad behind the belly were separated and weighed, the liver and retroperitoneal fat were weighed too. […] The left rats (10 rats each group) drug treatment was withdrawn while high-fat diet modeling continued. Two weeks later, blood sample was collected from the orbit, and serum TC, TG were detected.

hyperlipidemia hamsters [2] = assay: Effects on plasma lipid in hyperlipidemia hamsters (high-fat diet); assay type: in vivo, hamster; conditions: for HDL-C / HDL/LDL / LDL-C / TC / TG: 4 weeks;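 as to all read-outs here: hamsters given high-fat chow for four weeks, then dosed by gavage, plasma lipids measured in abdominal aortic blood after a 12 h fast, compared with vehicle-treated controls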
Description: (§5) After a week of accommodation, except control group (n=12) all the hamsters (n=72) were fed with high-fat laboratory chow.
as §3
(§6) At the end of 4 weeks drug treatment, animals were fasted for 12 hours (10 of each group). The next day, they were anesthetized by intraperitoneal injection of pentobarbitale sodium (45 mg/kg). Blood samples were collected from the abdominal aorta within 15 min, and plasma was separated. Plasma TC, TG, HDL-C, LDL-C, ALT, FFA were detected. Liver and the retroperitoneal fat were separated and weighed, the liver and fat index were calculated. Liver SOD and MDA were detected by kit after homogenized. The left hamsters (10 each group) drug treatment was withdrawn while high-fat diet modeling continued. Two weeks later, blood sample was collected from the orbit and serum TC and TG were detected.

hyperlipidemia rats [3] = assay: Serum lipid of hyperlipidemia rats after withdrawal from drugs for 2 weeks; assay type: in vivo, rat; conditions: for TC / TG: rats, 2 weeks after drug withdrawal, high-fat diet continued
Description: as §2, §3, §4

hyperlipidemia rats [4] = assay: Effects on retroperitoneal fat weight of hyperlipidemic rats; assay type: in vivo, rat; conditions: for Fat weight (retroperitoneal fat): hyperlipidemic rats, 4 weeks
Text: (§1) Control animals received an equal volume of vehicle.

hyperlipidemia rats [5] = assay: Effects on liver weight and serum ALT activity of hyperlipidemia rats; conditions: 4 weeks
Description: as §2, §3, §4

hyperlipidemia rats [6] = assay: Effects on hepatic SOD activity and MDA content of hyperlipidemia rats; assay type: in vivo, rat; conditions: for hepatic MDA / hepatic SOD: 4 weeks
Text: as §1

hyperlipidemia hamsters [7] = assay: Effects on hepatic SOD activity and MDA concentration in hyperlipidemic hamsters' livers; assay type: in vivo, hamster; conditions: for hepatic SOD / hepatic MDA: 4 weeks
Description: as §5, §3, §6

hyperlipidemia hamsters [8] = conditions: hamster, in vivo, 50 mg/kg
Description: as §5, §3, §6

hyperlipidemia rats [9] = conditions: rat, in vivo, 50 mg/kg
Description: as §2, §3, §4

hyperlipidemia hamsters [10] = assay: Serum lipid level in hyperlipidemic hamsters after drug discontinuance (2 weeks); assay type: in vivo, hamster; conditions: for TC / TG / serum lipid levels after drug discontinuance: hamsters; for TC / TG: 2 weeks after drug discontinuance, high-fat diet continued; for serum lipid levels after drug discontinuance: vs model group, in words
Description: as §5, §3, §6

hyperlipidemia hamsters [11] = assay: Effect on retroperitoneal fat of hyperlipidemia hamsters; assay type: in vivo, hamster
Description: as §5, §3, §6

hyperlipidemia hamsters [12] = assay: Effects on serum ALT activity in hyperlipidemic hamsters; conditions: for ALT: hyperlipidemic hamsters, 4 weeks
Description: as §5, §3, §6

[13] = hyperlipidemia rats, 3 mg/kg intragastric
[14] = hyperlipidemia rats, 6 mg/kg intragastric
[15] = hyperlipidemia rats, 12 mg/kg intragastric

`CC(C)OC(=O)C(C)(C)Oc1ccc(C(=O)c2ccc(Cl)cc2)cc1` [Fenofibrate, reference compound] was tested, and the FFA (hyperlipidemia rats [1]; 50 mg/kg intragastric) was 1.13 ± 0.30 mmol/L, the HDL-C (hyperlipidemia rats [1]; 50 mg/kg intragastric) was 0.59 ± 0.17 mmol/L and the HDL/LDL (hyperlipidemia rats [1]; 50 mg/kg intragastric) was 0.53 ± 0.16. It also gave an LDL-C (hyperlipidemia rats [1]; 50 mg/kg intragastric) of 1.16 ± 0.28 mmol/L, a TC (hyperlipidemia rats [1]; 50 mg/kg intragastric) of 2.23 ± 0.53 mmol/L and a TG (hyperlipidemia rats [1]; 50 mg/kg intragastric) of 0.70 ± 0.19 mmol/L. It also gave an HDL-C (hyperlipidemia hamsters [2]; 50 mg/kg intragastric) of 1.48 ± 0.40 mmol/L, an HDL/LDL (hyperlipidemia hamsters [2]; 50 mg/kg intragastric) of 0.50 ± 0.13 and an LDL-C (hyperlipidemia hamsters [2]; 50 mg/kg intragastric) of 3.04 ± 0.82 mmol/L. The TC (hyperlipidemia hamsters [2]; 50 mg/kg intragastric) was 4.76 ± 1.58 mmol/L, the TG (hyperlipidemia hamsters [2]; 50 mg/kg intragastric) was 3.80 ± 1.04 mmol/L and the TC (hyperlipidemia rats [3]; 50 mg/kg) was 2.08 ± 0.49 mmol/L. The TG (hyperlipidemia rats [3]; 50 mg/kg) was 1.03 ± 0.19 mmol/L, the “Fat weight (retroperitoneal fat)” value (hyperlipidemia rats [4]; 50 mg/kg intragastric) was 0.68 ± 0.16 g/100 g body weight and the Liver weight (hyperlipidemia rats [5]; 'rat' in hamster Table 9, 50 mg/kg intragastric) was 4.08 ± 0.36 g/100 g body weight. The Liver weight (hyperlipidemia rats [5]; hyperlipidemia rats, 50 mg/kg intragastric) was 4.08 ± 0.36 g/100 g body weight, the hepatic MDA (hyperlipidemia rats [6]; 50 mg/kg intragastric) was 9.35 ± 2.4 nmol/mg protein and the “hepatic SOD” value (hyperlipidemia rats [6]; 50 mg/kg intragastric) was 103.6 ± 27.9 U/g pr. The “hepatic SOD” value (hyperlipidemia hamsters [7]; 50 mg/kg intragastric) was 94.0 ± 16.3 U/g pr, the ALT (hyperlipidemia hamsters [8]) was 97.3 ± 37.8 U/L and the “serum ALT” value (hyperlipidemia rats [9]) was 40.3 ± 18.0 U/L. The TC (hyperlipidemia hamsters [10]; 50 mg/kg) was 5.29 ± 2.13 mmol/L and the TG (hyperlipidemia hamsters [10]; 50 mg/kg) was 4.16 ± 0.86 mmol/L.
With `CC(=O)OC[C@H]1O[C@@H](n2cnc3c(Nc4cccc(O)c4)ncnc32)[C@H](OC(C)=O)[C@@H]1OC(C)=O` [WS070117, O^2′,O^3′,O^5′-tri-acetyl-N^6-(3-hydroxylphenyl)adenosine] the retroperitoneal fat (hyperlipidemia hamsters [11]; 3 mg/kg intragastric, 4 weeks) was 1.26 ± 0.34 g/100g, the retroperitoneal fat (hyperlipidemia hamsters [11]; 6 mg/kg intragastric, 4 weeks) was 1.23 ± 0.23 g/100g and the retroperitoneal fat (hyperlipidemia hamsters [11]; 12 mg/kg intragastric, 4 weeks) was 1.31 ± 0.27 g/100g. For the same compound, the retroperitoneal fat (hyperlipidemia hamsters [11]; after treatment, in words) was “decreased”, the FFA (hyperlipidemia rats [1]; 3 mg/kg intragastric) was 1.04 ± 0.24 mmol/L and the HDL-C (hyperlipidemia rats [1]; 3 mg/kg intragastric) was 0.58 ± 0.10 mmol/L. For the same compound, the HDL/LDL (hyperlipidemia rats [1]; 3 mg/kg intragastric) was 0.43 ± 0.12, the LDL-C (hyperlipidemia rats [1]; 3 mg/kg intragastric) was 1.38 ± 0.27 mmol/L and the TC (hyperlipidemia rats [1]; 3 mg/kg intragastric) was 2.39 ± 0.34 mmol/L. The TG (hyperlipidemia rats [1]; 3 mg/kg intragastric) was 0.67 ± 0.15 mmol/L, the FFA (hyperlipidemia rats [1]; 6 mg/kg intragastric) was 0.94 ± 0.17 mmol/L and the HDL-C (hyperlipidemia rats [1]; 6 mg/kg intragastric) was 0.59 ± 0.18 mmol/L. The HDL/LDL (hyperlipidemia rats [1]; 6 mg/kg intragastric) was 0.52 ± 0.19, the LDL-C (hyperlipidemia rats [1]; 6 mg/kg intragastric) was 1.19 ± 0.18 mmol/L and the TC (hyperlipidemia rats [1]; 6 mg/kg intragastric) was 2.11 ± 0.24 mmol/L. For the same compound, the TG (hyperlipidemia rats [1]; 6 mg/kg intragastric) was 0.52 ± 0.13 mmol/L, the “effect on rats FFA” value (hyperlipidemia rats [1]; 6 mg/kg, in words) was “significant effect” and the FFA (hyperlipidemia rats [1]; 12 mg/kg intragastric) was 0.97 ± 0.27 mmol/L. For the same compound, the HDL-C (hyperlipidemia rats [1]; 12 mg/kg intragastric) was 0.56 ± 0.10 mmol/L, the HDL/LDL (hyperlipidemia rats [1]; 12 mg/kg intragastric) was 0.47 ± 0.13 and the LDL-C (hyperlipidemia rats [1]; 12 mg/kg intragastric) was 1.24 ± 0.20 mmol/L. The TC (hyperlipidemia rats [1]; 12 mg/kg intragastric) was 2.30 ± 0.29 mmol/L, the TG (hyperlipidemia rats [1]; 12 mg/kg intragastric) was 0.55 ± 0.19 mmol/L and the HDL-C/LDL-C (hyperlipidemia rats [1]; after treatment, in words) was “increased”. For the same compound, the “blood TC, TG and LDL-C” value (hyperlipidemia rats [1]; after treatment, in words) was “decreased”, the HDL-C (hyperlipidemia hamsters [2]; 3 mg/kg intragastric) was 1.24 ± 0.26 mmol/L and the HDL/LDL (hyperlipidemia hamsters [2]; 3 mg/kg intragastric) was 0.37 ± 0.11. The LDL-C (hyperlipidemia hamsters [2]; 3 mg/kg intragastric) was 3.68 ± 1.44 mmol/L, the TC (hyperlipidemia hamsters [2]; 3 mg/kg intragastric) was 4.35 ± 0.93 mmol/L and the TG (hyperlipidemia hamsters [2]; 3 mg/kg intragastric) was 4.26 ± 1.52 mmol/L. The HDL-C (hyperlipidemia hamsters [2]; 6 mg/kg intragastric) was 1.14 ± 0.18 mmol/L, the HDL/LDL (hyperlipidemia hamsters [2]; 6 mg/kg intragastric) was 0.40 ± 0.09 and the LDL-C (hyperlipidemia hamsters [2]; 6 mg/kg intragastric) was 3.00 ± 0.90 mmol/L. It also gave a TC (hyperlipidemia hamsters [2]; 6 mg/kg intragastric) of 4.19 ± 1.14 mmol/L, a TG (hyperlipidemia hamsters [2]; 6 mg/kg intragastric) of 3.67 ± 1.46 mmol/L and an HDL-C (hyperlipidemia hamsters [2]; 12 mg/kg intragastric) of 1.24 ± 0.40 mmol/L. It also gave an HDL/LDL (hyperlipidemia hamsters [2]; 12 mg/kg intragastric) of 0.59 ± 0.31, an LDL-C (hyperlipidemia hamsters [2]; 12 mg/kg intragastric) of 2.26 ± 0.47 mmol/L and a TC (hyperlipidemia hamsters [2]; 12 mg/kg intragastric) of 3.60 ± 1.84 mmol/L. The TG (hyperlipidemia hamsters [2]; 12 mg/kg intragastric) was 3.44 ± 1.29 mmol/L, the “blood TC, TG and LDL-C” value (hyperlipidemia hamsters [2]; after treatment, in words) was “decreased” and the “rate HDL-C/LDL-C” value (hyperlipidemia hamsters [2]; after treatment, in words) was “increased”. The “time blood-fat regulatory effect is sustained after withdrawal” value (hyperlipidemia rats [3]; hyperlipidemia rats) was “more than 2 weeks”, the “serum TC content after withdrawal from drugs for 2 weeks” value (hyperlipidemia rats [3]; hyperlipidemia rats, in words) was “significantly lower than that of the model group” and the TC (hyperlipidemia rats [3]; 3 mg/kg) was 2.12 ± 0.45 mmol/L. For the same compound, the TG (hyperlipidemia rats [3]; 3 mg/kg) was 1.04 ± 0.19 mmol/L, the TC (hyperlipidemia rats [3]; 6 mg/kg) was 2.02 ± 0.43 mmol/L and the TG (hyperlipidemia rats [3]; 6 mg/kg) was 1.03 ± 0.22 mmol/L. The TC (hyperlipidemia rats [3]; 12 mg/kg) was 2.15 ± 0.32 mmol/L, the TG (hyperlipidemia rats [3]; 12 mg/kg) was 1.01 ± 0.38 mmol/L and the “weight of rats' retroperitoneal fat” value (hyperlipidemia rats [4]; hyperlipidemia rats, after administration, in words) was “obviously decreased”. For the same compound, the “Fat weight (retroperitoneal fat)” value (hyperlipidemia rats [4]; 3 mg/kg intragastric) was 0.67 ± 0.33 g/100 g body weight, the “Fat weight (retroperitoneal fat)” value (hyperlipidemia rats [4]; 6 mg/kg intragastric) was 0.67 ± 0.12 g/100 g body weight and the “Fat weight (retroperitoneal fat)” value (hyperlipidemia rats [4]; 12 mg/kg intragastric) was 0.64 ± 0.22 g/100 g body weight. It also gave an ALT (hyperlipidemia hamsters [12]; 3 mg/kg intragastric) of 100.7 ± 38.2 U/L, an ALT (hyperlipidemia hamsters [12]; 6 mg/kg intragastric) of 91.7 ± 23.1 U/L and an ALT (hyperlipidemia hamsters [12]; 12 mg/kg intragastric) of 95.2 ± 34.8 U/L. The “serum ALT activity” value (hyperlipidemia hamsters [12]; text of hamster Example 3 says 'hyperlipidemic rats', in words) was “slightly reduced”, the Liver weight (hyperlipidemia rats [5]; 'rat' in hamster Table 9, 3 mg/kg intragastric) was 3.22 ± 0.48 g/100 g body weight and the Liver weight (hyperlipidemia rats [5]; 'rat' in hamster Table 9, 6 mg/kg intragastric) was 3.21 ± 0.38 g/100 g body weight. The Liver weight (hyperlipidemia rats [5]; 'rat' in hamster Table 9, 12 mg/kg intragastric) was 3.26 ± 0.54 g/100 g body weight, the Liver weight (hyperlipidemia rats [5]; [13]) was 3.22 ± 0.48 g/100 g body weight and the “serum ALT” value (hyperlipidemia rats [5]; [13]) was 42.9 ± 13.7 U/L. The Liver weight (hyperlipidemia rats [5]; [14]) was 3.21 ± 0.38 g/100 g body weight, the “serum ALT” value (hyperlipidemia rats [5]; [14]) was 41.6 ± 19.8 U/L and the Liver weight (hyperlipidemia rats [5]; [15]) was 3.26 ± 0.54 g/100 g body weight. The “serum ALT” value (hyperlipidemia rats [5]; [15]) was 42.0 ± 16.6 U/L, the hepatic MDA (hyperlipidemia rats [6]; 3 mg/kg intragastric) was 8.51 ± 3.32 nmol/mg protein and the “hepatic SOD” value (hyperlipidemia rats [6]; 3 mg/kg intragastric) was 93.3 ± 37.5 U/g pr. For the same compound, the hepatic MDA (hyperlipidemia rats [6]; 6 mg/kg intragastric) was 8.71 ± 2.83 nmol/mg protein, the “hepatic SOD” value (hyperlipidemia rats [6]; 6 mg/kg intragastric) was 102.0 ± 24.4 U/g pr and the hepatic MDA (hyperlipidemia rats [6]; 12 mg/kg intragastric) was 8.29 ± 2.78 nmol/mg protein. The “hepatic SOD” value (hyperlipidemia rats [6]; 12 mg/kg intragastric) was 107.7 ± 26.4 U/g pr, the “hepatic SOD activity” value (hyperlipidemia rats [6]; after administration, in words) was “significantly increased” and the “hepatic MDA content” value (hyperlipidemia rats [6]; in words) was “decreased”. For the same compound, the hepatic MDA (hyperlipidemia hamsters [7]; 3 mg/kg intragastric) was 4.8 ± 1.2 nmol/mg protein, the “hepatic SOD” value (hyperlipidemia hamsters [7]; 3 mg/kg intragastric) was 84.0 ± 19.6 U/g pr and the hepatic MDA (hyperlipidemia hamsters [7]; 6 mg/kg intragastric) was 4.23 ± 0.72 nmol/mg protein. The “hepatic SOD” value (hyperlipidemia hamsters [7]; 6 mg/kg intragastric) was 95.1 ± 31.6 U/g pr, the hepatic MDA (hyperlipidemia hamsters [7]; 12 mg/kg intragastric) was 4.6 ± 0.92 nmol/mg protein and the “hepatic SOD” value (hyperlipidemia hamsters [7]; 12 mg/kg intragastric) was 91.9 ± 22.9 U/g pr. The MDA concentration (hyperlipidemia hamsters [7]; in words) was “lower than the model group”, the TC (hyperlipidemia hamsters [10]; 3 mg/kg) was 5.34 ± 1.32 mmol/L and the TG (hyperlipidemia hamsters [10]; 3 mg/kg) was 4.36 ± 1.27 mmol/L. For the same compound, the “serum lipid levels after drug discontinuance” value (hyperlipidemia hamsters [10]; 6 mg/kg) was “significantly lower”, the TC (hyperlipidemia hamsters [10]; 6 mg/kg) was 5.02 ± 1.35 mmol/L and the TG (hyperlipidemia hamsters [10]; 6 mg/kg) was 4.16 ± 0.77 mmol/L. For the same compound, the “serum lipid levels after drug discontinuance” value (hyperlipidemia hamsters [10]; 12 mg/kg) was “significantly lower”, the TC (hyperlipidemia hamsters [10]; 12 mg/kg) was 4.61 ± 1.11 mmol/L and the TG (hyperlipidemia hamsters [10]; 12 mg/kg) was 3.82 ± 0.66 mmol/L. For the same compound, the “time hypolipidemic effect lasted after drug discontinuance” value (hyperlipidemia hamsters [10]; hyperlipidemic hamsters) was at least 2 weeks.
